Calls of active or inactive are those of the source. The calls are words filed in the database; no cut-off is given here.

Assay [1] deals with T1, Nischarin (Rattus norvegicus, UniProt Q4G017). The assay can be described thus: Displacement of [3H]clonidine from Imidazoline receptor 1 in Sprague-Dawley rat kidney membrane. It is filed as cell membranes. For orientation: In a radioligand displacement assay an active substance lowers the binding of a labelled ligand.
For assay [2], the species on record is Rattus norvegicus. The assay can be described thus: Selectivity ratio, IC50 for Imidazoline receptor 1 in Sprague-Dawley rat kidney membrane to Ki for alpha2 adrenoceptor in Sprague-Dawley rat whole brain membrane. It is filed as cell membranes.
Assay [3] relates to Mus musculus. Put plainly: Antinociceptive activity in CD1 mouse at 10 mg/kg, sc after 30 mins by tail flick test. It is filed as functional, organism-based. On the set-up: dose 10 mg/kg.
The test system of assay [4] is Mus musculus. The assay can be described thus: Increase in morphine-induced analgesia in CD1 mouse at 10 mg/kg, sc after 30 mins by tail flick test relative to control. The note with it: route subcutaneous. The class given is functional.
Assay [5] is described as follows: Displacement of [3H]RX821002 from Adrenergic alpha2 receptor in Sprague-Dawley rat whole brain membrane.
The species named for assay [6] is Rattus norvegicus. The assay can be described thus: Selectivity ratio, IC50 for Imidazoline receptor 1 in Sprague-Dawley rat kidney membrane to Ki for Imidazoline receptor 2 in Sprague-Dawley rat whole brain membrane. It is filed as cell membranes.
The nature of assay [7]: Displacement of [3H]2-BFI from Imidazoline receptor 2 in Sprague-Dawley rat whole brain membrane.
For assay [8], the system named is Mus musculus. The assay can be described thus: Effect on morphine-induced analgesia in efaroxan pretreated CD1 mouse at 10 mg/kg, sc by tail flick test. The arrangement: dose 10 mg/kg. It is filed as functional, organism-based. In general terms: Hot-plate and tail-flick tests time the reaction to a heat stimulus.
Assay [9] concerns Mus musculus. Put plainly: Effect on morphine-induced analgesia in yohimbine pretreated CD1 mouse at 10 mg/kg, sc by tail flick test. It is filed as functional, organism-based. The arrangement: dose 10 mg/kg.
Assay [10] concerns Mus musculus. Put plainly: Reversal of decrease in morphine-induced analgesia in idazoxan pretreated CD1 mouse at 10 mg/kg, sc by tail flick assay. The class given is functional, organism-based. The arrangement: dose 10 mg/kg.
Assay [11] in a line: Binding affinity to Imidazoline receptor 2.
In assay [12] the test system is Mus musculus. The assay can be described thus: Decrease in morphine-induced analgesia in CD1 mouse at 10 mg/kg, sc after 30 mins by tail flick test relative to control. The class given is functional. On the set-up: scale not given: the % may be the effect or the level left. Conditions: route subcutaneous.
Assay [13] has as its system Mus musculus. The assay can be described thus: Antinociceptive activity in CD1 mouse at 20 mg/kg, sc after 30 mins by tail flick test. The class given is functional, organism-based. The arrangement: dose 20 mg/kg.
Assay [14] deals with Mus musculus. The assay can be described thus: Decrease in morphine-induced analgesia in CD1 mouse at 20 mg/kg, sc after 30 mins by tail flick test relative to control. It is filed as functional. On the set-up: scale not given: the % may be the effect or the level left. The note with it: route subcutaneous.
For assay [15], the target named is T1, Nischarin. The assay can be described thus: Displacement of [3H]clonidine from Imidazoline receptor 1 rat PC-12 cells. The class given is cell-based.

T1 sequence (Q4G017 whole entry): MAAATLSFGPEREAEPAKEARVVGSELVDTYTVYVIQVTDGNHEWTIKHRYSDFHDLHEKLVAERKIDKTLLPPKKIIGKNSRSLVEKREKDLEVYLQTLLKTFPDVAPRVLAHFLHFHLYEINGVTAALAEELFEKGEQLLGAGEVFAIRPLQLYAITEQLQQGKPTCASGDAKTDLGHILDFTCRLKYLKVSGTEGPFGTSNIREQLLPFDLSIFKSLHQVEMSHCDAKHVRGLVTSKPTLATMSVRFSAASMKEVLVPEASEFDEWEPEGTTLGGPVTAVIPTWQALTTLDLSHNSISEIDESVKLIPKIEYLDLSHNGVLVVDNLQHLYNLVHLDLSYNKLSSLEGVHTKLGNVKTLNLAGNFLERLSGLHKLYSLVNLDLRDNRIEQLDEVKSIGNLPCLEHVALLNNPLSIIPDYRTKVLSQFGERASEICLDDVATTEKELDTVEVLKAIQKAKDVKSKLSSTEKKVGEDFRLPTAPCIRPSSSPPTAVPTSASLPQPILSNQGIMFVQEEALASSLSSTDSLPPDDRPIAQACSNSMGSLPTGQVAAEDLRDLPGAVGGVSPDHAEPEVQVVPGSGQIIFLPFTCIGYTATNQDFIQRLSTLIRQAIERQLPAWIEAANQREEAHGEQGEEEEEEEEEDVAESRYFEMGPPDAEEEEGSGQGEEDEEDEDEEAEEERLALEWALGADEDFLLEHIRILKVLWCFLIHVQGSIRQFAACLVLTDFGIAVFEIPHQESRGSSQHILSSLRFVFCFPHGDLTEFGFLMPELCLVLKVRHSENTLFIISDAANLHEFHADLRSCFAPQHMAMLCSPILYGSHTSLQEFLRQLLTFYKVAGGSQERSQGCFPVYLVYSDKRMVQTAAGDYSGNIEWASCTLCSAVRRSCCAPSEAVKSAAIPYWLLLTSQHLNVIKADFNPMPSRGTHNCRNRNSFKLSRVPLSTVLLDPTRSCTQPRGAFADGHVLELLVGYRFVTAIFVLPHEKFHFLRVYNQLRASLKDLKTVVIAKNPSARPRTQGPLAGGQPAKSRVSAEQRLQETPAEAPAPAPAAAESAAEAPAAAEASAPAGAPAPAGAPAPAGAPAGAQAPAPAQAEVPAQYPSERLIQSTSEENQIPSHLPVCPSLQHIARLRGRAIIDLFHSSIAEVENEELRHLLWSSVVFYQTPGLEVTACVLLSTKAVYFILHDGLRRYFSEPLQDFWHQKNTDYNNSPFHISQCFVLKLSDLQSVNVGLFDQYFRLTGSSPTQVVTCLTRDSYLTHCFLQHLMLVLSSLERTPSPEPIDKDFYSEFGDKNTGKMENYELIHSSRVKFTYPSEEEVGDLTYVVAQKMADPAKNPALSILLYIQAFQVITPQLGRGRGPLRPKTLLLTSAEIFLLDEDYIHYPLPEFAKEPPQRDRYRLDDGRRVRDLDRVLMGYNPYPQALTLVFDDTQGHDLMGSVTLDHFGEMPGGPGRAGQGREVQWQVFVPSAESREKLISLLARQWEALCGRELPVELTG

A word on the IC50: it is the point on the concentration scale where inhibition reaches its midpoint. What is called Ki is the equilibrium dissociation constant of an inhibitor or competing ligand from its target. In turn, `C1CCC(CCC2=NCCN2)CC1` came in with an IC50 in assay [1] of 3570 nM. Further, the Ratio turned out to be 617 in [2] and 744 in assay [6]. In addition, the result in assay [3] was inactive. Further, the Activity in [4] was found to be 30%. The Ki in assay [5] was 2960 nM; in assay [7], 4.8 nM.
Broadly, the pKi is the Ki on a negative log10 scale, so that one unit is a factor of ten. Consider `c1ccc(CCC2=NCCN2)cc1` [PHENYZOLINE], for which the outcome in [8] and in assay [9] was inactive. Besides, the figures for the Ratio in assay [2] and in assay [6] were 794 and 1480, respectively. The Activity in assay [4] is on record as 60%. For the same compound, the Ki in assay [5] was determined as 1980 nM; in assay [7], 2.5 nM. The outcome in assay [10] was Active. Besides, the pKi in assay [11] came to 8.6.
In [1], `c1ccc2c(CCC3=NCCN3)cccc2c1` returned an IC50 of 25800 nM. Further, the Ratio came to 328 in assay [2] and 22300 in assay [6]. Besides, in [3], the outcome was inactive. In addition, the Activity in assay [4] is 16%. Also, the inhibition constant (Ki) in [5] was 381 nM; in [7], 1.16 nM.
`Oc1ccccc1CCC1=NCCN1` gave an IC50 in assay [1] of 7300 nM. Also, the results for the Ratio in [2] and in [6] were 12.6 and 99.3, respectively. In addition, in assay [12], the Activity is reported as -26%. For the same compound, in assay [3], the result was inactive. Besides, the Ki in assay [5] turned out to be 926 nM; in assay [7], 73.5 nM.
`c1cncc(CCC2=NCCN2)c1` gave an IC50 in assay [1] of 212000 nM. In addition, the Ratio was 157 in assay [2] and 512 in [6]. In addition, the outcome in assay [3] was inactive. In [4], the Activity was 23%. Further, the Ki in assay [5] is 64800 nM; in [7], 414 nM.
Take `c1ccc(-c2ccsc2)c(CCC2=NCCN2)c1`: the half-maximal inhibitory concentration (IC50) in assay [1] was found to be 6890 nM. The figures for the Ratio in [2] and in assay [6] were 32.9 and 775, respectively. For the same compound, in assay [12], the Activity is recorded as -59%. Besides, the outcome in assay [3] was inactive. For the same compound, the values for the Ki in [5] and in assay [7] were 293 nM and 8.89 nM, respectively.
Regarding `Cc1ccccc1CCC1=NCCN1`, the IC50 in assay [1] turned out to be 7360 nM. Moreover, the results for the Ratio in assay [2] and in assay [6] were 332 and 4380, respectively. The Activity in assay [12] is -44%. Further, the result in [3] was inactive. Further, the Ki is 558 nM in assay [5] and 1.68 nM in assay [7].
As for `c1c[nH]c(CCC2=NCCN2)c1`, the IC50 in assay [1] was 23900 nM. Further, the Ratio in [2] was found to be 13.9; in assay [6], 94. Also, the outcome in assay [3] was inactive. Besides, the Activity in assay [4] worked out at 14%. Besides, the figures for the Ki in assay [5] and in assay [7] were 3540 nM and 254 nM, respectively.
Turning to `O=[N+]([O-])c1cccc(-c2ccccc2CCC2=NCCN2)c1`, in [1], the half-inhibitory concentration (IC50) turned out to be 4000 nM. Also, the Ratio in [2] stood at 4.4; in [6] it was 16. Further, the Ki in assay [5] stood at 1120 nM; in assay [7] it was 252 nM. In [13], the outcome was inactive. Moreover, the Activity in assay [14] was -29%.
The compound `Clc1ccccc1CCC1=NCCN1` returned an IC50 in assay [1] of 4260 nM. Also, the values for the Ratio in assay [2] and in assay [6] were 197 and 2840, respectively. Moreover, the Activity in [12] is reported as -34%. The outcome in assay [3] was inactive. Besides, the Ki in assay [5] was 295 nM; in [7], 1.5 nM.
On to `c1ccc(-c2ccccc2CCC2=NCCN2)cc1`, for which the Ki in assay [15] is 6340 nM; in assay [5] it was 7130 nM; in [7], 158 nM. In addition, the result in assay [8] and in assay [9] was inactive. The Ratio in assay [2] is 45; in assay [6], 40. In addition, the Activity in assay [12] is recorded as -41%. Further, in [10], the result was Active. Moreover, in [11], the negative-log Ki (pKi) is given as 6.8.
In turn, `c1csc(CCC2=NCCN2)c1` displayed a half-maximal inhibitory concentration (IC50) in assay [1] of 2880 nM. In addition, the Ratio in [2] turned out to be 106; in [6], 373. In addition, the result in [3] was inactive. For the same compound, the Activity in assay [4] is reported as 34%. Also, the Ki stood at 820 nM in [5] and 7.72 nM in assay [7].

For the origin of these results see ChEMBL document CHEMBL1156552, “Novel ligands rationally designed for characterizing I2-imidazoline binding sites nature and functions” (J Med Chem, 2008).
